Experimental data taken from patent US8076487B2, “Pyridone derivative and herbicide” (Kumiai Chemical Industry Co., Ltd., priority 2006, dated 2011).

Legend:
Assay type in all cases: in vivo
[1] = system: early watergrass (Echinochloa oryzicola Vasing); experiment: Test Example 1: herbicidal effect by soil application to paddy field; conditions: paddy field soil application; active ingredient 1,000 g per 1 hectare; wettable powder added dropwise to water surface the day after sowing; examined on the 21st day after application
Procedure, shortened: (§1)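 Plants were sown in flooded (3 cm) paddy soil and evaluated for herbicidal effect 21 days after soil application in a greenhouse.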

[2] = system: heartshape false pickerelweed (Monochoria vaginalis (Burm.f.) C.Presl); experiment: as above; conditions: paddy field soil application; active ingredient 1,000 g per 1 hectare; wettable powder added dropwise to water surface the day after sowing; examined on the 21st day after application
Procedure, shortened: as §1

[3] = system: Japanese bulrush (Scirpus juncoides Roxb.); experiment: as above; conditions: paddy field soil application; active ingredient 1,000 g per 1 hectare; wettable powder added dropwise to water surface the day after sowing; examined on the 21st day after application
Procedure, shortened: as §1

[4] = system: green foxtail (Setaria viridis (L.) P. Beauv.); experiment: Test Example 2: herbicidal effect by soil application to upland field; conditions: soil surface spray, upland field soil, 1,000 g active ingredient per hectare, 21st day after application
Procedure, shortened: (§2)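 Dose was 1,000 g active ingredient per hectare, applied as a wettable powder diluted in water and sprayed evenly over the soil of sown, covered pots at a 1,000 L/ha equivalent. Effect was judged by a standard scale 21 d later under greenhouse conditions.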

[5] = system: barnyardgrass (Echinochloa crus-galli (L.) P. Beauv. var. crus-galli); experiment: as above; conditions: soil surface spray, upland field soil, 1,000 g active ingredient per hectare, 21st day after application
Procedure, shortened: as §2

[6] = system: velvetleaf (Abutilon theophrasti medicus); experiment: as above; conditions: soil surface spray, upland field soil, 1,000 g active ingredient per hectare, 21st day after application
Procedure, shortened: as §2

[7] = system: slender amaranth (Amaranthus viridis L.); experiment: as above; conditions: soil surface spray, upland field soil, 1,000 g active ingredient per hectare, 21st day after application
Procedure, shortened: as §2

[8] = system: green foxtail (Setaria viridis (L.) P. Beauv.); experiment: Test Example 3: herbicidal effect by application to upland field (foliage treatment); conditions: 14th day after application; for herbicidal effect, Green Foxtail: foliage treatment, 1,000 g active ingredient per 1 hectare, greenhouse
Procedure, shortened: (§3)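 Upland foliage test in greenhouse pots of field soil: seedlings sprayed at two weeks post-sowing with 1,000 g/ha active ingredient (wettable powder, 1,000 L water/ha). Scored 14 d after application.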

[9] = system: barnyardgrass (Echinochloa crus-galli (L.) P. Beauv. var. crus-galli); experiment: as above; conditions: 14th day after application; for herbicidal effect, Barnyardgrass: foliage treatment, 1,000 g active ingredient per 1 hectare, greenhouse
Procedure, shortened: as §3

[10] = system: velvetleaf (Abutilon theophrasti medicus); experiment: as above; conditions: 14th day after application; for herbicidal effect, Velvetleaf: foliage treatment, 1,000 g active ingredient per 1 hectare, greenhouse
Procedure, shortened: as §3

[11] = system: slender amaranth (Amaranthus viridis L.); experiment: as above; conditions: 14th day after application; for herbicidal effect, Slender Amaranth: foliage treatment, 1,000 g active ingredient per 1 hectare, greenhouse
Procedure, shortened: as §3

[12] = foliage treatment, plants grown two weeks, 1,000 g active ingredient per hectare

| Compound | herbicidal effect, Echinochloa oryzicola Vasing [1] | herbicidal effect, Monochoria vaginalis (Burm. f.) C. Presl [2] | herbicidal effect, Scirpus juncoides Roxb. [3] | herbicidal effect (index), Green Foxtail [4] | herbicidal effect (index), Barnyardgrass [5] | herbicidal effect (index), Velvetleaf [6] | herbicidal effect (index), Slender Amaranth [7] | herbicidal effect (index), Green Foxtail [8, 12] | herbicidal effect (index), Barnyardgrass [9, 12] | herbicidal effect (index), Velvetleaf [10, 12] | herbicidal effect (index), Slender Amaranth [11, 12] | herbicidal effect, Green Foxtail [8] | herbicidal effect, Barnyardgrass [9] | herbicidal effect, Velvetleaf [10] | herbicidal effect, Slender Amaranth [11] |
| --- | --- | --- | --- | --- | --- | --- | --- | --- | --- | --- | --- | --- | --- | --- | --- |
| COc1cc(-n2c(C(F)(F)F)ccc(C(=O)C3=C(O)CCCC3=O)c2=O)ccc1Cl [I-108] | 5 (90% or more of herbicidal effect and crop phytotoxicity) | 5 (90% or more of herbicidal effect and crop phytotoxicity) | 5 (90% or more of herbicidal effect and crop phytotoxicity) | 4 (70 to less than 90% of herbicidal effect and crop phytotoxicity) | 5 (90% or more of herbicidal effect and crop phytotoxicity) | 5 (90% or more of herbicidal effect and crop phytotoxicity) | 5 (90% or more of herbicidal effect and crop phytotoxicity) | 5 (90% or more of herbicidal effect and crop phytotoxicity) | 5 (90% or more of herbicidal effect and crop phytotoxicity) | 5 (90% or more of herbicidal effect and crop phytotoxicity) | 5 (90% or more of herbicidal effect and crop phytotoxicity) | – | – | – | – |
| COc1ccc(-n2c(C(F)(F)F)ccc(C(=O)C3=C(O)CCCC3=O)c2=O)cc1F [I-109] | 4 (70 to less than 90% of herbicidal effect and crop phytotoxicity) | 5 (90% or more of herbicidal effect and crop phytotoxicity) | 5 (90% or more of herbicidal effect and crop phytotoxicity) | 5 (90% or more of herbicidal effect and crop phytotoxicity) | 5 (90% or more of herbicidal effect and crop phytotoxicity) | 5 (90% or more of herbicidal effect and crop phytotoxicity) | 5 (90% or more of herbicidal effect and crop phytotoxicity) | – | – | – | – | 4 (70 to less than 90% of herbicidal effect and crop phytotoxicity) | 5 (90% or more of herbicidal effect and crop phytotoxicity) | 5 (90% or more of herbicidal effect and crop phytotoxicity) | 5 (90% or more of herbicidal effect and crop phytotoxicity) |
| COc1ccc(-n2c(C(F)(F)F)ccc(C(=O)C3=C(O)CCCC3=O)c2=O)cc1Cl [I-110] | 5 (90% or more of herbicidal effect and crop phytotoxicity) | 5 (90% or more of herbicidal effect and crop phytotoxicity) | 5 (90% or more of herbicidal effect and crop phytotoxicity) | 4 (70 to less than 90% of herbicidal effect and crop phytotoxicity) | 5 (90% or more of herbicidal effect and crop phytotoxicity) | 5 (90% or more of herbicidal effect and crop phytotoxicity) | 5 (90% or more of herbicidal effect and crop phytotoxicity) | – | – | – | – | 3 (50 to less than 70% of herbicidal effect and crop phytotoxicity) | 5 (90% or more of herbicidal effect and crop phytotoxicity) | 4 (70 to less than 90% of herbicidal effect and crop phytotoxicity) | 5 (90% or more of herbicidal effect and crop phytotoxicity) |
| COCc1cc(-n2c(C(F)(F)F)ccc(C(=O)C3=C(O)CCCC3=O)c2=O)ccc1F [I-111] | 5 (90% or more of herbicidal effect and crop phytotoxicity) | 5 (90% or more of herbicidal effect and crop phytotoxicity) | 5 (90% or more of herbicidal effect and crop phytotoxicity) | 5 (90% or more of herbicidal effect and crop phytotoxicity) | 5 (90% or more of herbicidal effect and crop phytotoxicity) | 5 (90% or more of herbicidal effect and crop phytotoxicity) | 5 (90% or more of herbicidal effect and crop phytotoxicity) | – | – | – | – | 5 (90% or more of herbicidal effect and crop phytotoxicity) | 5 (90% or more of herbicidal effect and crop phytotoxicity) | 5 (90% or more of herbicidal effect and crop phytotoxicity) | 5 (90% or more of herbicidal effect and crop phytotoxicity) |
| O=C1CCCC(O)=C1C(=O)c1ccc(C(F)(F)F)n(Cc2ccccc2)c1=O [I-114] | 5 (90% or more of herbicidal effect and crop phytotoxicity) | 5 (90% or more of herbicidal effect and crop phytotoxicity) | 5 (90% or more of herbicidal effect and crop phytotoxicity) | 4 (70 to less than 90% of herbicidal effect and crop phytotoxicity) | 5 (90% or more of herbicidal effect and crop phytotoxicity) | 5 (90% or more of herbicidal effect and crop phytotoxicity) | 5 (90% or more of herbicidal effect and crop phytotoxicity) | – | – | – | – | 4 (70 to less than 90% of herbicidal effect and crop phytotoxicity) | 5 (90% or more of herbicidal effect and crop phytotoxicity) | 5 (90% or more of herbicidal effect and crop phytotoxicity) | 5 (90% or more of herbicidal effect and crop phytotoxicity) |
| N#Cc1cccc(Cn2c(C(F)(F)F)ccc(C(=O)C3=C(O)CCCC3=O)c2=O)c1 [I-118] | 5 (90% or more of herbicidal effect and crop phytotoxicity) | 5 (90% or more of herbicidal effect and crop phytotoxicity) | 5 (90% or more of herbicidal effect and crop phytotoxicity) | 4 (70 to less than 90% of herbicidal effect and crop phytotoxicity) | 5 (90% or more of herbicidal effect and crop phytotoxicity) | 5 (90% or more of herbicidal effect and crop phytotoxicity) | 5 (90% or more of herbicidal effect and crop phytotoxicity) | – | – | – | – | 5 (90% or more of herbicidal effect and crop phytotoxicity) | 5 (90% or more of herbicidal effect and crop phytotoxicity) | 5 (90% or more of herbicidal effect and crop phytotoxicity) | 5 (90% or more of herbicidal effect and crop phytotoxicity) |
| N#Cc1ccc(Cn2c(C(F)(F)F)ccc(C(=O)C3=C(O)CCCC3=O)c2=O)cc1 [I-119] | 5 (90% or more of herbicidal effect and crop phytotoxicity) | 5 (90% or more of herbicidal effect and crop phytotoxicity) | 5 (90% or more of herbicidal effect and crop phytotoxicity) | 5 (90% or more of herbicidal effect and crop phytotoxicity) | 5 (90% or more of herbicidal effect and crop phytotoxicity) | 5 (90% or more of herbicidal effect and crop phytotoxicity) | 5 (90% or more of herbicidal effect and crop phytotoxicity) | – | – | – | – | 5 (90% or more of herbicidal effect and crop phytotoxicity) | 5 (90% or more of herbicidal effect and crop phytotoxicity) | 5 (90% or more of herbicidal effect and crop phytotoxicity) | 5 (90% or more of herbicidal effect and crop phytotoxicity) |
